Where two headings read alike, the source gives them in different places.
Columns and labels:
GluR6 receptor = assay: Complex olfactory discrimination learning in 4-arm maze after injection into the brain ventricles; format: in vivo; conditions: rats; 500 nmol into the brain ventricles, evaluation 10 min after daily injection; saline injected rats 8 days; p<0.001
Method: Olfactory discrimination protocol was performed in a 4-arm radial maze, with odors that are frequently used in the food industry (FIG. 1A). FIG. 1A is a schematic description of the 4-arm maze: an electronic ‘start’ command opens randomly two out of eight valves (V), releasing a positive-cue odor (P) into one of the arms and a negative-cue odor (N) into another. Eight seconds later, the two corresponding guillotine doors (D) are lifted to allow the rat to enter the selected arms. Upon reaching the far end of an arm (90 cm long), the rat body interrupts an infrared beam (I, arrow) and a drop of drinking water is released from a water hose (W) into a small drinking well (for a trained rat—only if the arm contains the positive-cue odor, for pseudo-trained rat—randomly). A trial ends when the rat interrupts a beam, or in 10 seconds, if no beam was interrupted. A fan is operated for 15 seconds between trials, to remove odors.
Olfactory training included 20 trials per day. […] A pseudo-trained group of age-matched rats was exposed to the same protocol of training, but with random water rewarding. An age-matched naive group of rats was water-deprived, without exposure to training. A day following memorization of a pair of odors by the rats in the trained group, both trained and pseudo trained groups were trained with a new pair of odors. […]

kainate receptors = assay: Post-burst AHP amplitude in pyramidal neurons of brain slices after brief kainate exposure; format: cell-based, rat; conditions: for averaged AHP amplitude: after ten minutes long exposure to kainate, p<0.05
Method: brain slices of the pirofm cortex hippocampus are prepared and recordings were obtained from pyramidal neurons, with sharp electrodes for current clamp studies of AHP and neuronal adaptation. Data was collected from at least 20 neurons taken for 6 rats or more in each experimental group.
for after-hyper-polarization (AHP) measurement, neurons were depolarized in current clamp mode to Vm of −60 mV with DC current injection, and 100 ms long depolarizing current steps were applied with intensity sufficient to evoke trains of 6 action potentials. AHP amplitude was measured from baseline to the peak of the hyperpolarizing voltage deflection that follows the spike train (FIGS. 2A1 and 2A2). The AHP value was determined from the averaged amplitude in 4-5 consecutive traces, evoked at intervals of 10 sec. FIGS. 2A1 and 2A2 show the same trace on different time scales. Neurons were held at membrane potential of −60 mV and post-burst AHP was generated by 100 ms depolarizing current step injection via the recording electrode, with intensity sufficient to generate a train of 6 action potentials.
These experiments included a brief, ten minutes long, exposure to kainate. […] This decrease outlasted while kainate was present and was always apparent for the total length to kainate exposure (FIG. 8A).
The post burst AHP in neurons from trained rats was not affected by exposure to kainate. The averaged AHP in kainate induced, trained neurons was 6.63±2.4 (n=7).

GluR6 = format: cell-based, mice; conditions: 1 sec depolarizing pulse, Ithx2, versus control
Method: For neuronal adaptation measurements, prolonged (1 sec) depolarizing current steps are applied to the neurons via the recording electrode at Vrest, with stimulus intensity of twice IThreshold (FIG. 2B). The firing frequency was measured between each of two spikes in the train, and values were normalized to the initial frequency at which the first two spikes are generated. FIG. 2B is a graph depicting an example for neuronal firing adaptation in layer II pyramidal cell.
FIG. 10B is a bar graph depicting the number of spikes following kainate application in GluR6+/+ and GluR6−/− neurons, as opposed to control, (n) depicts the number of neurons.

Compound	averaged number of training days required for learning completion (GluR6 receptor)	averaged AHP amplitude (kainate receptors; neurons from naive animals, n=16)	averaged AHP amplitude (kainate receptors; neurons from pseudo trained rats, n=7)	effect on post burst AHP (kainate receptors; neurons from trained rats, exposure to kainate)	averaged AHP (kainate receptors; neurons from trained rats, kainate induced, n=7)	number of action potentials (spikes) following kainate application (GluR6; neurons from GluR6 knockout (GluR6-/-) mice)	number of action potentials (spikes) following kainate application (GluR6; neurons of wild type (GluR6+/+) mice)
Cc1onc(O)c1CCC(N)C(=O)O (racemic) [homo-AMPA, (RS)-2-amino-4-(3-hydroxy-5-methylisoxazol-4-yl)butyric acid]	less than five	–	–	–	–	–	–
C=C(C)[C@H]1CN[C@H](C(=O)O)[C@H]1CC(=O)O [kainate, kainic acid]	–	6.0±2.5	6.63 ± 2.4	not affected	6.63±2.4	no effect	doubles
